Results from PubChem BioAssay AID493105 (The Scripps Research Institute Molecular Screening Center, 2011).
Calls of active or inactive are those of the source. How the calls were made is not given here.

Columns and labels:
Assay in all cases: LYPLA1 and LYPLA2 inhibitors, biochemical, gel-based ABPP, fluorescence, recombinant and endogenous enzyme (AID 493105)
emLYPLA1 = details: fluorescent probe labeling, membrane fraction, at 20 µM, stronger effect = higher value
emLYPLA2 = details: fluorescent probe labeling, membrane fraction, at 20 µM, stronger effect = higher value
rhLYPLA1 = details: fluorescent probe labeling, soluble fraction, at 20 µM, stronger effect = higher value
rhLYPLA2 = details: fluorescent probe labeling, membrane fraction, at 20 µM, stronger effect = higher value

Compound | inhibition (emLYPLA1) | inhibition (emLYPLA2) | inhibition (rhLYPLA1) | inhibition (rhLYPLA2)
COc1ccc(C(=O)NC(=S)Nc2ccc(N3CCOCC3)cc2)cc1Cl | 0% (inactive) | 8% (inactive) | 0% (inactive) | 1% (inactive)
COc1ccc(N2CCN(C(=O)CNC(=O)c3cn(-c4ccccc4OC)c(=O)c4ccccc34)CC2)cc1 | 15% (inactive) | 34% | 0% (inactive) | 26% (inactive)
COc1ccccc1-c1csc(-n2ncc(C#N)c2N)n1 | – | 6% (inactive) | 0% (inactive) | 4% (inactive)
O=c1ccc2ccc(Oc3ccc([N+](=O)[O-])cc3Cl)cc2o1 | 0% (inactive) | 17% (inactive) | 0% (inactive) | 6% (inactive)
CCC(=C/c1sc2ccc3ccccc3c2[n+]1C)/C=C1\Sc2ccc3ccccc3c2N1C | 1% (inactive) | 7% (inactive) | 0% (inactive) | 2% (inactive)
CC1CN(Cc2cc(=O)oc3cc(O)c(Cl)cc23)CC(C)O1 (configuration not stated) | 0% (inactive) | 0% (inactive) | 0% (inactive) | 3% (inactive)
O=C(CN1CCN(C(=O)c2ccco2)CC1)Nc1cc(Cl)ccc1Cl | 37% | 0% (inactive) | 60% | 0% (inactive)
COc1ccc(C(=O)NC(=S)Nc2ccc(N3CCN(C(C)=O)CC3)cc2)cc1[N+](=O)[O-] | 10% (inactive) | 31% | 44% | 15% (inactive)
O=[N+]([O-])c1ccc(N2CCC(=NOCc3ccc(Cl)cc3)CC2)cc1 | 12% (inactive) | 13% (inactive) | 22% (inactive) | 0% (inactive)
CC1CCc2c(sc(NC(=O)CN3CCN(C(=O)c4ccco4)CC3)c2C#N)C1 (configuration not stated) | 3% (inactive) | 0% (inactive) | 16% (inactive) | 0% (inactive)
O=C(O)c1ccc2c(c1)C(=O)N(CCCCCCCN1C(=O)c3ccc(C(=O)O)cc3C1=O)C2=O | 23% (inactive) | 3% (inactive) | 65% | 0% (inactive)
CC(=O)N1CCN(c2ccc(NC(=S)NC(=O)c3ccc(C)c([N+](=O)[O-])c3)cc2)CC1 | 0% (inactive) | 14% (inactive) | 17% (inactive) | 5% (inactive)
COc1cc([C@H]2Oc3cc([C@H]4Oc5cc(O)cc(O)c5C(=O)[C@@H]4O)ccc3O[C@@H]2CO)ccc1O | – | 42% | 13% (inactive) | 28% (inactive)
COc1ccc(-n2nc(C(=O)NCC(=O)N3CCN(Cc4ccccc4)CC3)c3ccccc3c2=O)c(OC)c1 | 0% (inactive) | 46% | 31% | 30%
O=C(COc1ccc(Br)cc1)N1CCN(c2ccc([N+](=O)[O-])c(N3CCCCC3)c2)CC1 | 0% (inactive) | 3% (inactive) | 45% | 7% (inactive)
O=C(CCCCn1c(=O)[nH]c2ccccc2c1=O)N1CCN(c2cccc(C(F)(F)F)c2)CC1 | 0% (inactive) | 0% (inactive) | 0% (inactive) | 0% (inactive)
O=C(c1ccc2n[nH]nc2c1)N1CCN(c2ccc(C(F)(F)F)cn2)CC1 | 90% | 57% | 70% | 32%
O=C(CCCc1ccccc1)N1CCN(c2ccc([N+](=O)[O-])cc2)CC1 | 0% (inactive) | 3% (inactive) | 0% (inactive) | 0% (inactive)
CCOc1cc(CN2CCCC(C(=O)c3cccc(C(F)(F)F)c3)C2)ccc1O (configuration not stated) | 0% (inactive) | 0% (inactive) | 2% (inactive) | 0% (inactive)
N#Cc1c(NC(=O)CSc2nc(N)cc(=O)[nH]2)sc2c1CCCC2 | 0% (inactive) | 0% (inactive) | 26% (inactive) | 3% (inactive)
O=C(c1ccc(-c2ccccc2)c(F)c1)C1CCCN(C(=O)c2cncs2)C1 (configuration not stated) | – | 12% (inactive) | 0% (inactive) | 6% (inactive)
CC(=O)N1CCC2(CC1)C/C(=N\NC(=S)Nc1ccc(C)cc1)c1cc(O)ccc1O2 | 0% (inactive) | 1% (inactive) | 3% (inactive) | 0% (inactive)
Clc1cccc(N2CCN(CCNc3nc4ccccc4n4cnnc34)CC2)c1 | 1% (inactive) | 0% (inactive) | 0% (inactive) | 0% (inactive)
O=C1N=C(N2CCN(Cc3ccccc3)CC2)S/C1=C/c1cccs1 | 4% (inactive) | 0% (inactive) | 0% (inactive) | 2% (inactive)

Compound | inhibition (emLYPLA1) | inhibition (emLYPLA2) | inhibition (rhLYPLA1) | inhibition (rhLYPLA2)
O=C(COc1ccc(Cl)cc1)N1CCN(c2ccc([N+](=O)[O-])c(N3CCOCC3)c2)CC1 | 0% (inactive) | 0% (inactive) | 47% | 3% (inactive)
O=C(CN1CCN(C(=O)c2ccccc2)CC1)Nc1cc(S(=O)(=O)N2CCCC2)ccc1Cl | 21% (inactive) | 14% (inactive) | 55% | 3% (inactive)
CC1CC(C)CN(S(=O)(=O)c2ccc3c(c2)CC(C)N3C(=O)C2CCC2)C1 (configuration not stated) | 0% (inactive) | 0% (inactive) | 9% (inactive) | 0% (inactive)
O=C(C1CCC(Cn2c(=S)[nH]c3ccccc3c2=O)CC1)N1CCN(c2ccccc2)CC1 (configuration not stated) | 0% (inactive) | 8% (inactive) | 0% (inactive) | 13% (inactive)
Cc1ccc(CN2CCN(/N=C/C=C/c3ccccc3[N+](=O)[O-])CC2)cc1 | 0% (inactive) | 26% (inactive) | 27% (inactive) | 10% (inactive)
CSc1ccccc1OCc1cc(C(=O)N2CCC(Oc3cccnc3)CC2)no1 | – | 16% (inactive) | 0% (inactive) | 6% (inactive)
COc1ccc(C(CNC(=O)COc2ccc(-c3ccccc3)cc2)N2CCOCC2)cc1 (configuration not stated) | 0% (inactive) | 1% (inactive) | 5% (inactive) | 0% (inactive)
CC(=O)c1ccc(N2CCN(C(=O)c3cccc(Oc4ccccc4)c3)CC2)cc1 | 0% (inactive) | 0% (inactive) | 29% (inactive) | 12% (inactive)
O=C(/C=C/c1ccccc1)N1CCN(CCN2C(=O)c3cccc4cccc(c34)C2=O)CC1 | – | 34% | 15% (inactive) | 18% (inactive)
O=C(c1cc(COc2cccc(C(F)(F)F)c2)on1)N1CCC(Oc2cccnc2)CC1 | – | 0% (inactive) | 0% (inactive) | 0% (inactive)
O=C(COc1ccc(Cl)cc1)N1CCN(C/C=C/c2ccccc2)CC1 | – | 25% (inactive) | 0% (inactive) | 12% (inactive)
COc1ccc(C(=O)NC(=S)Nc2ccc(N3CCOCC3)c(Cl)c2)cc1[N+](=O)[O-] | – | 1% (inactive) | 7% (inactive) | 5% (inactive)
COc1ccc(N2CCN(C(=O)CCCCCn3c(=O)[nH]c4ccsc4c3=O)CC2)cc1 | – | 6% (inactive) | 0% (inactive) | 6% (inactive)
Cc1ccc(N2CCN(C3=NC(=O)/C(=C\c4cccs4)S3)CC2)cc1 | – | 0% (inactive) | 0% (inactive) | 5% (inactive)
Cc1cc(OCc2cc(C(=O)N3CCC(Oc4cccnc4)CC3)no2)cc(C)c1Cl | – | 5% (inactive) | 0% (inactive) | 3% (inactive)
O=C(NC(=S)Nc1sc2c(c1C(=O)O)CCCC2)c1ccccc1 | – | 52% | 2% (inactive) | 34%
COc1ccc(S(=O)(=O)Nc2ccc(Cc3ccncc3)cc2)cc1C | – | 0% (inactive) | 12% (inactive) | 0% (inactive)
O=C(c1ccc(S(=O)(=O)N2CCCCC2)cc1)N1CCN(CCN2C(=O)c3cccc4cccc(c34)C2=O)CC1 | – | 27% (inactive) | 11% (inactive) | 20% (inactive)
O=C(COc1ccc(Cl)cc1)N1CCN(c2ccc([N+](=O)[O-])c(N3CCCCC3)c2)CC1 | – | 10% (inactive) | 36% | 5% (inactive)
COc1ccc(-n2nc(C(=O)NCC(=O)N3CCN(Cc4ccccc4)CC3)c3ccccc3c2=O)cc1 | – | 43% | 17% (inactive) | 17% (inactive)
O=C(/C=C/c1ccc(Br)cc1)N1CCN(c2cccc(C(F)(F)F)c2)CC1 | – | 16% (inactive) | 16% (inactive) | 15% (inactive)
Nc1nc(NCc2ccco2)nc(N2CCN(Cc3ccccc3)CC2)c1[N+](=O)[O-] | – | 1% (inactive) | 2% (inactive) | 5% (inactive)
CCOc1ccc(NC(=S)NC(=O)c2c(Br)cnn2C)c([N+](=O)[O-])c1 | – | 16% (inactive) | 17% (inactive) | 5% (inactive)
O=c1[nH]c(CN2CCN(C/C=C/c3ccccc3)CC2)nc2cc(Cl)ccc12 | – | 2% (inactive) | 3% (inactive) | 0% (inactive)
